Experimental data as given in patent publication US4798811A, “Combination preparation” (BASF Aktiengesellschaft, priority 1986, dated 1989).

What was measured:
thrombocyte aggregation [1] = experiment: In vitro inhibition of thrombocyte aggregation induced by adrenalin and collagen in thrombocyte-rich plasma; type: cell-based, test persons
Description: (§1) The following methods were used:
1. In vitro investigations
(§2) Venous blood was taken from four test persons and rendered unclottable by adding citrate, and thrombocyte-rich plasma was then obtained from this blood by centrifuging under 300 g for 10 minutes at 4° C. The addition of adrenalin (final concentration 5×10^-8 mole/liter) and collagen (final concentration 2×10^-3 g/liter) to the thrombocyte-rich plasma caused aggregation, which was measured as the change in extinction using a Born aggregometer MK 3. The maximum change in extinction per second was used as a measure of aggregation. The percentage inhibition of aggregation was determined by comparing the values before and after administration of the substance.

thrombocyte aggregation [2] = experiment: Ex vivo inhibition of thrombocyte aggregation after oral administration to five test persons; type: in vivo; settings: four hours after administration
Description: as §1, §2
2. Ex vivo investigations
The candidate compounds were filled into stomach-soluble gelatine capsules and administered orally to five test persons. Venous blood was taken before administration of the substances and four hours after administration. This blood was prepared as under 1 and made to aggregate. The percentage inhibition of aggregation was determined by comparing the values before and after administration of the substance.

Compound	inhibition at 1 µg/mL (thrombocyte aggregation [1]; Conc. 1 mg/l, adrenalin 5×10^-8 mole/liter and collagen 2×10^-3 g/liter)	aggregation inhibition (in words) (thrombocyte aggregation [1]; dose of 1.0 mg/l)	Aggregation inhibition (%) (thrombocyte aggregation [2]; oral Dosage 60 mg)	inhibition at 2 µg/mL (thrombocyte aggregation [1]; Conc. 2 mg/l, adrenalin 5×10^-8 mole/liter and collagen 2×10^-3 g/liter)	inhibition at 10 µg/mL (thrombocyte aggregation [1]; Conc. 10 mg/l, adrenalin 5×10^-8 mole/liter and collagen 2×10^-3 g/liter)	Aggregation inhibition (%) (thrombocyte aggregation [2]; oral Dosage 240 mg)
CC(=O)Oc1ccccc1C(=O)O [ASA, acetylsalicylic acid]	0%	ineffective	0%	–	–	–
COc1ccc(CCN(C)CCCC(C#N)(c2ccc(OC)c(OC)c2)C(C)C)cc1OC (stereo not drawn) [Verapamil, 1,7-bis-(3,4-dimethoxyphenyl)-3-methylaza-7-cyano-8-methylnonane]	–	–	–	8.7%	31%	33%
